# Test results from patent US4731370A, “Pyridyl ester containing 1,4-dihydropyridine derivatives and salts thereof and pharmaceutical composition containing the same” (Toyama Chemical Co., Ltd., priority 1984, dated 1988).
# Structures can show the parent of a compound that is named as a salt.
# Experiments:
# [1] = tested on: mouse pulmonary infraction model; assay: Antithrombosis activity, mouse pulmonary infraction model, paralytic time-shortening (0.15 ml epinephrine/collagen); format: in vivo, mouse (ICR strain); settings: 1 h, oral, challenge after one hour, 10 mice, read-out: Paralytic time-shortening percentage
# Protocol: (§1) The compounds of this invention to be tested were used in the form of a hydrochloride.
# Comparing the paralytic time of the control group, the paralytic time-shortening percentage due to the compound to be tested was determined.
# (§2) The test compounds shown in Table 4 were adjusted to the desired concentrations with water, and the test compounds shown in Table 5 were adjusted to a concentration of 5 mg/ml with an aqueous solution containing 10% by volume of each of dimethyl sulfoxide and Cremophor, and then diluted with water to the desired concentrations.
# [2] = Acute toxicity, intravenous, mice; settings: mouse, in vivo, mice (ICR, male, 4 weeks old, 5 per group)
# [3] = tested on: Thromboxane-Synthesizing Enzyme; assay: Thromboxane-synthesizing enzyme-inhibitory activity (MDA production in platelet-rich plasma after oral dosing); format: in vivo, rat (Wistar strain); settings: rat, 3 mg/kg, blood after one hour
# Protocol: as §1
# To a rat (Wistar strain, male, 300-350 g, 4 heads per group) which had been starved overnight was orally administered a test compound solution, and blood was collected from the abdominal aorta using citric acid after one hour. Two milliliters of a 1×10^9 /ml platelet-rich plasma (PRP) was preincubated at 37° C. for 2 minutes. Subsequently, 0.1 ml of 10 mM sodium archidonate was added, and the resulting mixture was subjected to reaction for 6 minutes, after which indomethacin was added thereto to terminate the reaction. The reaction mixture was subjected to deproteinization treatment and reacted with thiobarbituric acid (TBA) reagent, after which the reaction mixture was subjected to extraction with 3 ml of n-butanol. The resulting extract was subjected to colorimetry (λ=532 nm) to determine the amount of malondialdehyde (MDA) produced. As to the platelet-poor plasma (PPP) obtained from the same rat as above, the same procedure as above was repeated to determine the amount of MDA produced, and the difference between the two is indicated as MDA value. Comparing with the MDA values of the control group, the MDA production-inhibition (%) was determined.
# as §2, with “1-9” for “shown in Table 4”, “water” for “water,”, “11-33 and nicardipine” for “shown in Table 5”, “10%” for “10% by volume”, “Cremophor” for “Cremophor,”
# [4] = tested on: mouse pulmonary infraction model; assay: Antithrombosis activity, mouse pulmonary infraction model, prevention of death and paralysis (0.10 ml epinephrine/collagen); format: in vivo, mouse (ICR strain); settings: Mus musculus, po, 1 h, read-out: Preventive percentage of death + paralysis for 10 minutes or more
# Protocol: as §1
# According to the G. DiMinno and M. J. Silver method [J. Pharmacol. Exp. Therap., 225 (1) 57-60 (1983)], a solution of the compound to be tested was orally administered to a mouse (ICR strain, male, 4 weeks old), and 0.15 ml of a mixed solution of epinephrine (100 μM) and collagen (150 μg/ml) was intravenously administered to the mouse after one hour, after which the paralytic time was measured. Comparing the paralytic time of the control group, the paralytic time-shortening percentage due to the compound to be tested was determined. The results obtained are shown in Table 4, in which the case where the paralytic time was 15 minutes was calculated as death.
# Moreover, the same experiment was repeated, except that 0.10 ml of a mixed solution of epinephrine (100 μM) and collagen (150 μg/ml) was intravenously administered to the mouse and the effect of preventing the appearance of death and a case where the paralytic time was 10 minutes or more was checked and the results thereof are shown in Table 5.
# as §2
# [5] = tested on: coronary vessel (isolated guinea pig heart); assay: Coronary vasodilating activity (isolated perfused guinea pig heart, coronary effluent); set-up: species or system guinea pig (Hartley strain); settings: Langendorff perfusion, 0.1 ml into aorta, hydrochloride
# Protocol: as §1
# The heart of a guinea pig (Hartley strain, male, 500-700 g, 3 heads per group) was isolated and set in the Landendorff perfusing apparatus. About 0.5% defibrinated blood was fed to the apparatus, and the Krebs bicarbonate solution, into which a mixed gas consisting of 95% of O2 and 5% of CO2 had been bubbled was perfused over the heart, after which a 1 mg/ml solution of the test compound in an aqueous solution containing 10% by volume of dimethylsulfoxide and 10% of polyoxyethylfatty acid glyceride [Cremophor EL manufactured by Sigma] was prepared, diluted with a saline solution to the desired concentration, and then administered into the heart in an amount of 0.1 ml through the rubber tube attached to the cannula inserted retrogressively into the aorta. The vasodilating activity was determined by measuring the amount of the solution effluent from the coronary vessel after passing through the aorta by means of an electric drop counter (universal drop counter manufactured by Natsume Seisakusho) and indicated as ED50 value which is the amount necessary for the amount of the effluent solution to increase 50% as compared with those before addition of the test compound.
# [6] = tested on: vertebral artery blood flow of a dog; assay: Vertebral artery blood flow increasing activity; format: in vivo, dog (mongrel); settings: i.v., amount with same activity as 1 mg/kg (i.v.) papaverine hydrochloride, ratio to papaverine hydrochloride
# Protocol: as §1
# The vertebral artery blood flow of a dog (mongrel, 12-22 kg, 2-3 heads per group) anesthetized with pentobarbital sodium (30 mg/kg, i.v.) was measured by means of an electromagnetic flow meter (MFV-2100 manufactured by Nihon Kohden Kogyo).
# The test compounds 1, 3 and 10 were adjusted to a concentration of 1 mg/ml with distilled water, and then diluted with a saline solution to the desired concentrations, after which the thus diluted solutions were intravenously administered, and the test compounds 12, 15, 18, 19, 20, 24, 29, 30, 32 and 33 were formed into solutions in the same manner as in Item 1 above and then intravenously administered.
Compound,inhibition in vivo at 10 mg/kg [1] [%],LD50 [2] [mg/kg],MDA production-inhibition [3] [%],inhibition in vivo at 300 mg/kg ([1]; 300 mg/kg) [%],responders at 30 mg/kg [4] [%],ED50 (amount necessary for the amount of the effluent solution to increase 50%) [5] [μg/i.c.],Effect ratio [6],responders at 10 mg/kg [4] [%]
COC(=O)C1=C(C)NC(C)=C(C(=O)OCCN(C)C/C(C)=C/c2ccc(Cc3cccnc3)cc2)C1c1cccc([N+](=O)[O-])c1 (stereo not shown) [compound 2],84.1,≥ 30,63.2,,,,,
"C/C(=C\c1ccc(Cc2cccnc2)cc1)C(=O)O [OKY-1581, Sodium (E)-3-[4-(pyridin-3-ylmethyl)phenyl]-2-methylpropenoate, reference compound]",,,,9.5,10,,,
"COC(=O)C1=C(C)NC(C)=C(C(=O)OCCN(C)Cc2ccccc2)C1c1cccc([N+](=O)[O-])c1 (stereo not shown) [Nicardipine, 3-[2-(N-benzyl-N-methylamino)ethyl]5-methyl 2,6-dimethyl-4-(3-nitrophenyl)-1,4-dihydropyridine-3,5-dicarboxylate hydrochloride, reference compound]",6.3,,2.7,,,0.042,220,0
CC1=C(C(=O)OCCN(C)C/C=C/c2ccc(Cc3cccnc3)cc2)C(c2cccc([N+](=O)[O-])c2)C(C(=O)OC(C)C)=C(C)N1 (stereo not shown) [compound 7],36.4,≥ 30,52.8,,,,,
CC1=C(C(=O)OCCNC/C(C)=C/c2ccc(Cc3cccnc3)cc2)C(c2cccc([N+](=O)[O-])c2)C(C(=O)OC(C)C)=C(C)N1 (stereo not shown) [compound 8],47.9,≥ 30,64.9,,,,,
CCOC(=O)C1=C(C)NC(C)=C(C(=O)OCCN(C)C/C(C)=C/c2ccc(Oc3cccnc3)cc2)C1c1cccc([N+](=O)[O-])c1 (stereo not shown) [compound 10],79.2,≥ 30,,,,,641,
